Source: paper PMC9779571, “Guanidine Derivatives Containing the Chalcone Skeleton Are Potent Antiproliferative Compounds against Human Leukemia Cells” (International Journal of Molecular Sciences, 2022)

What was measured:
[1] = tested on: SK-MEL-1 cells; experiment: MTT cytotoxicity assay, SK-MEL-1; assay type: cell-based, human; details: means ± SEM
Description: (§1) U-937, HL-60, MOLT-3, NALM-6, and SK-MEL-1 cells were from DSMZ (German Collection of Microorganisms and Cell Cultures, Braunschweig, Germany). U-937/Bcl-2 cells were kindly provided by Dr. Jacqueline Bréard (INSERM U749, Faculté de Pharmacie Paris-Sud, Châtenay-Malabry, France). The U-937 is a pro-monocytic, human promyelocytic leukemia cell line that was isolated from a histiocytic lymphoma. HL-60 is a human acute myeloid leukemia cell line. MOLT-3 is a human acute lymphoblastic leukemia cell line. NALM-6 is a human B cell precursor leukemia. SK-MEL-1 is a human melanoma cell line growing singly or in clumps (occasional giant, polynucleated cell) in suspension. Cells were cultured in RPMI 1640 medium containing 10% (v/v) heat-inactivated fetal bovine serum, 100 μg/mL streptomycin, and 100 U/mL penicillin, incubated at 37 °C in a humidified atmosphere containing 5% CO2 as described. The doubling times of the cell lines were 24 h in HL-60, 30 h in U-937, U-937/Bcl-2, 40 h in MOLT-3 and NALM-6, and several days in SK-MEL-1 cells. Human peripheral blood mononuclear cells (PBMC) were isolated from heparin-anticoagulated blood of healthy volunteers by centrifugation with Ficoll-Paque Plus (GE Healthcare Bio-Sciences AB, Uppsala, Sweden). PBMC were also stimulated with phytohemagglutinin (2 µg/mL) for 48 h before the experimental treatment. The trypan blue exclusion method was used for counting the cells by a hemocytometer with 95% viability in all the experiments. Compounds were dissolved in dimethyl sulfoxide (DMSO) and kept under dark conditions at 25 °C. […] The cytotoxicity of the synthetic compounds was evaluated by colorimetric 3-(4,5-dimethyl-2-thiazolyl-)-2,5-diphenyl-2H-tetrazolium bromide (MTT) assay as previously described. Briefly, cells (5000 per well) were incubated with increasing concentrations of compounds for 72 h into a 96-well plate. Then, the supernatants were removed and 0.5 mg/mL MTT was added and incubated for 4 h at 37 °C. Sodium dodecyl sulfate (10% w/v) in 0.05 M HCl was added to solubilize the reaction products and the absorbance was measured at 570 nm with a reference wavelength of […] using an ELISA reader (Bio-Rad, Hercules, CA, USA). The IC50 values (concentrations inducing a 50% inhibition of cell viability) were determined graphically for each experiment by a nonlinear regression using the curve fitting routine implemented within the software Prism 5.0 (GraphPad, La Jolla, CA, USA).

[2] = tested on: PBMC; experiment: Annexin V-FITC/propidium iodide flow cytometry, PBMC; assay type: cell-based, human; details: 24 h; for annexin V-FITC positive cells with respect to control: 3 µM; for fold increase of annexin V-FITC positive cells with respect to control / annexin V-FITC positive cells: 10 µM; for annexin V-FITC positive cells: control 9.3%
Description: as §1
(§2) Cells (2.5 × 10^5) were centrifuged for 10 min at 500× g, washed with cold PBS, fixed with ice-cold 75% ethanol and stored at −20 °C overnight. Samples were then centrifuged at 500× g for 10 min at 4 °C, washed with PBS, resuspended in 200 μL of PBS containing 100 μg/mL RNase and 50 μg/mL propidium iodide and incubated for 1 h in the dark. The DNA content was analyzed by flow cytometry with a BD FACSVerse^TM cytometer (BD Biosciences, San Jose, CA, USA). Apoptosis was also evaluated by flow cytometric analysis of double-staining annexin V-FITC and propidium iodide cells as previously described.

[3] = tested on: human peripheral blood mononuclear cells (PBMC); experiment: Cell viability of quiescent and PHA-activated PBMC; assay type: cell-based; details: up to 10 µM, 24 h
Description: (§3) U-937, HL-60, MOLT-3, NALM-6, and SK-MEL-1 cells were from DSMZ (German Collection of Microorganisms and Cell Cultures, Braunschweig, Germany). U-937/Bcl-2 cells were kindly provided by Dr. Jacqueline Bréard (INSERM U749, Faculté de Pharmacie Paris-Sud, Châtenay-Malabry, France). The U-937 is a pro-monocytic, human promyelocytic leukemia cell line that was isolated from a histiocytic lymphoma. HL-60 is a human acute myeloid leukemia cell line. MOLT-3 is a human acute lymphoblastic leukemia cell line. NALM-6 is a human B cell precursor leukemia. SK-MEL-1 is a human melanoma cell line growing singly or in clumps (occasional giant, polynucleated cell) in suspension. […] The cytotoxicity of the synthetic compounds was evaluated by colorimetric 3-(4,5-dimethyl-2-thiazolyl-)-2,5-diphenyl-2H-tetrazolium bromide (MTT) assay as previously described. […] Sodium dodecyl sulfate (10% w/v) in 0.05 M HCl was added to solubilize the reaction products and the absorbance was measured at 570 nm with a reference wavelength of […] using an ELISA reader (Bio-Rad, Hercules, CA, USA). […]
Figure 2 (a) Dose-response study of hybrid chalcone–guanidines on human U-937 leukemia cell viability. Cells were cultured in the presence of increasing concentrations of selected guanidines for 72 h, and thereafter cell viability was determined by the MTT assay. […]

[4] = tested on: U-937 cells; experiment: Annexin V-FITC/propidium iodide flow cytometry, U-937; assay type: cell-based, human; details: U-937, 10 µM, 24 h; for annexin V-FITC positive cells: control 3.5%
Procedure: as §2

[5] = tested on: six human cancer cell lines; experiment: MTT cytotoxicity assay, all cell lines assayed (summary statements); assay type: cell-based; details: Homo sapiens; range over the six cell lines, 72 h
Description: as §3, with “suspension. Cells were cultured in RPMI 1640 medium containing 10% (v/v) heat-inactivated fetal bovine serum, 100 μg/mL streptomycin, and 100 U/mL penicillin, incubated at 37 °C in a humidified atmosphere containing 5% CO2 as described.” for “suspension.”

[6] = tested on: U-937/Bcl-2 cells; experiment: MTT cytotoxicity assay, U-937/Bcl-2; assay type: cell-based, human; details: means ± SEM
Description: as §1

Row | SMILES | IC50 ([1]; Homo sapiens, SK-MEL-1, 72 h) [µM] | annexin V-FITC positive cells with respect to control [2] | fold increase of annexin V-FITC positive cells with respect to control [2] [fold] | annexin V-FITC positive cells [2] [%] | cytotoxicity against proliferating and quiescent lymphocytes (PBMC) versus U-937 [3] | fold increase of annexin V-FITC positive cells over control [4] [fold] | annexin V-FITC positive cells [4] [%] | IC50 [5] [µM] | IC50 ([6]; Homo sapiens, U-937, 72 h) [µM] | IC50 ([1]; 72 h) [µM] | IC50 ([6]; 72 h) [µM]
1 | Cc1ccc(S(=O)(=O)NC(=Nc2ccc(/C=C/C(=O)c3c(O)cccc3OCc3ccccc3)cc2)N2CCN(C)CC2)cc1 [Compound 6f] | 4.5 ± 0.4 | hardly increased | 3 | 27 | lower cytotoxicity | 11 | 38 | 1.5 to 4.5 | 2.2 ± 0.8 |  | 
2 | O=C(/C=C/c1ccc(N=C(Nc2ccccc2)N2CCCCC2)cc1)c1c(O)cccc1OCc1ccccc1 [Compound 6i] | ~10 | hardly increased | 1.4 | 13 | lower cytotoxicity | 10 | 36 |  | < 10 | 13.8 ± 1.2 | 5.1 ± 1.8
